# Legend:
# [1] = test system: neuroblastoma (SK-N-BE(2)) xenograft; test: Tumor volume in neuroblastoma xenograft in NMRI nude mice; format: in vivo, human; conditions: bortezomib + HNG i.p., until day 13
# type-X collagen = test: Immunohistochemistry for type-X collagen in tibia growth plate; format: in vivo, mice
# Description: Four weeks old mice (female, FVB) were injected with Dexa dissolved in saline (20 μg/mice) subcutaneously in the neck every day for four week. Whereas, HNG (S14G) dissolved in saline (1 μg/mice) was injected intra-peritoneally, 45 minutes prior to the Dexa injection. The vehicle group received saline only. The femur and tibia bones were dissected out and fixed in 4% formalin for 24 hrs, followed by decalcification in 10% EDTA and embedded in paraffin blocks. Five-micrometer-thick sections were prepared from these paraffin blocks. After one wash in dH2O, endogenous peroxidase activity was reduced by incubation in 3% hydrogen peroxide in methanol for 5 min at room temperature. The sections were additionally treated with 5 mg/ml hyaluronidase (Sigma-Aldrich, Inc, Steinheim, Germany) for 30 min at 37° C., then blocked in 3% horse serum and incubated overnight at +4° C. with anti-collagen type-X primary antibody (Quartett GmbH, Berlin, Germany; 1:30). Secondary anti-mouse biotinylated antibody (1:300) was purchased from DakoCytomation A/S (Glostrup, Denmark). Sections were washed in TBS, incubated with avidin-conjugated peroxidase (Vector Laboratories) for 60 min, and the resulting peroxidase activity was detected using a DAB Kit (Vector Laboratories). […] Minimum 4 measurements were taken from each sample and measured blindly. n=4-5/group, **p<0.01. […]
# growth plate cartilage = test: Growth plate histology, resting and proliferating chondrocyte zone (R+P); format: in vivo, mice; conditions: four weeks
# Description: Four weeks old mice (female, FVB) were injected with Dexa dissolved in saline ([…]) subcutaneously in the neck every day for four week. Whereas, HNG (S14G) dissolved in saline (1 μg/mice) was injected intra-peritoneally, 45 minutes prior to the Dexa injection for four weeks, for details see materials and methods. The femur and tibia bones were dissected out and fixed in 4% formalin for 24 hrs, followed by decalcification in 10% EDTA and embedded in paraffin blocks. Five-micrometer-thick sections were prepared from these paraffin blocks. The sections were prepared from the tibial growth plate and stained with Van Gieson. Digital images of stained sections were collected using a Nikon Eclipse E800 microscope (Nikon Corp., Tokyo, Japan) equipped with an Olympus DP70 digital camera (Olympus Sverige AB, Solna, Sweden).
# Since a positive effect of HNG (S14G) on bone growth was identified, different zones of chondrocytes were analyzed (resting, proliferative and hypertrophic) in growth plate cartilage, to identify visible changes in these zones. […] These micropgraphas also explain the longitudinal bone growth promoting effects by HNG (S14G) alone or in combination with Dexa.
substance,measurement,setting,value
S14G-HN (MAPRGFSCLLLLTGEIDLPVKRRA) [HNG (S14G)],interference with anti-cancer effect of bortezomib (tumor volume),[1],does not interfere with the anti-cancer effect
same,type-X collagen expression (height),"type-X collagen; Dexa 20 μg/mice + HNG 1 μg/mice every day for four weeks, vs Dexa alone, p<0.01",significantly increased
same,type-X collagen expression (height),"type-X collagen; HNG only, 1 μg/mice every day for four weeks",also increased
same,size of resting and proliferating chondrocyte zone (R+P),"growth plate cartilage; HNG (S14G)/Dexa, vs Dexa only",larger than in the Dexa only treated group
same,size of resting and proliferating chondrocyte zone (R+P),"growth plate cartilage; HNG alone 1 μg/mice, vs all other groups",appears to be larger

# Source: patent US20130053323A1, “METHODS AND USE RELATED TO HUMANIN AND HUMANIN-LIKE PEPTIDES” (priority 2009, published 2013)
